Experimental data published in US8372847B2, “Pyrazinone modulator of corticotropin-releasing factor receptor activity” (Bristol-Myers Squibb Company, priority 2008, dated 2013).

Tests used:
Male Sprague-Dawley rats [1] = test: Situational anxiety behavioral model in rats (latency to exit dark cylinder into open field); type: in vivo, rat; conditions: for lowest effective dose (decrease of exit latency): PO, 60 minutes before testing
Description: Situational Anxiety Behavioral Studies in Rats. (S)-4-(1-Cyclopropyl-2-methoxyethyl)-6-(6-(difluoromethoxy)-2,5-dimethylpyridin-3-ylamino)-5-oxo-4,5-dihydropyrazine-2-carbonitrile has been evaluated in a situational anxiety model to evaluate its anxiolytic potential. In this model, rats are placed in a small, darkened chamber located in an unfamiliar open field. Vehicle-treated rats spend most of the time within the chamber, consistent with a heightened state of anxiety [Takahashi L. K. et al, Behav. Neurosci. 103: 648-654, (1989)]. This model is sensitive to anxiolytics, including benzodiazepines such as chlordiazepoxide [Yang X-M. et al, J. Pharmacol. Exp. Ther. 255: 1064-1070, (1990)]. In addition, previous CRF1 antagonists, such as DMP696 and DMP904 [McElroy J. F. et al., Psychopharmacology 165: 86-92, (2002); Lelas S. et al., J. Pharmacol. Exp. Ther. 309: 293-302, (2004)] were effective this model. The effects of (S)-4-(1-cyclopropyl-2-methoxyethyl)-6-(6-(difluoromethoxy)-2,5-dimethylpyridin-3-ylamino)-5-oxo-4,5-dihydropyrazine-2-carbonitrile were compared with those of anxiolytic standards chlordiazepoxide (Librium®) and diazepam (Valium®) in this model. Male Sprague-Dawley rats weighing 180-300 g were purchased from Charles River Laboratories (Wilmington, Mass.). The rats were housed individually in suspended wire cages in colony rooms maintained at a constant temperature (21±2° C.) and humidity (50±10%). The rooms were illuminated 12 hours per day. The rats had ad libitum access to food and water throughout the studies. Behavioral studies were conducted between 0600 and 1300 h. Animals were maintained in accordance with the guidelines of the Animal Care and Use Committee of the Bristol-Myers Squibb Company, the “Guide for Care and Use of Laboratory Animals” (Institute of Animal Laboratory Resources, 1996), and the guidelines published in the National Institutes of Health Guide for the Care and Use of Laboratory Animals. Research protocols were approved by the Bristol-Myers Squibb Company Animal Care and Use Committee. All compounds were prepared in 0.25% methylcellulose and administered PO. Chlordiazepoxide, diazepam, and desipramine were purchased from Sigma Chemical Company. (S)-4-(1-Cyclopropyl-2-methoxyethyl)-6-(6-(difluoromethoxy)-2,5-dimethylpyridin-3-ylamino)-5-oxo-4,5-dihydropyrazine-2-carbonitrile was dosed in the volume of 2 ml/kg. All standards were dosed in the volume of 2 ml/kg. For all tests, data were analyzed by analysis of variance, followed by Dunnett's t-tests for individual comparisons. The significance value was set at 0.05. The data are presented in the text and figures as mean±standard error of the mean (SEM). Male Sprague-Dawley rats were habituated to handling and dosing the day before testing. On the day of testing, all compounds were administered PO by gavage 60 minutes before behavioral testing. To initiate testing, each animal was placed in a small galvanized steel cylinder (14 cm length, 10 cm diameter), which was placed lengthwise against one wall of an illuminated open field (106 cm length×92 cm width×50 cm height). The open field was illuminated by a 60-W incandescent bulb and illumination was titrated by a powerstat transformer to a 30-lux reading at the entrance to the cylinder. Behavior was assessed for 15 minutes by a trained observer unaware of treatment assignment. The latency of the animal to exit the cylinder, defined by the placement of all four paws into the open field, and explore the open field was recorded (in seconds). […] The Plexiglas chamber and the cylinder were cleaned with 1.0% glacial acetic acid between animals to prevent olfactory cues from influencing the behavior of subsequently tested animals. Following behavioral testing, animals were sacrificed and plasma samples and brains were taken for analysis of plasma exposure and central receptor occupancy.

Male Sprague-Dawley rats [2] = conditions: previous CRF1 antagonists, literature (McElroy 2002; Lelas 2004); cited from earlier work
[3] = 3.0 mg/kg PO, benzodiazepine standard studies
[4] = 10 mg/kg PO, benzodiazepine standard studies

Structure (SMILES) | decrease in exit latency relative to vehicle-treated controls (Male Sprague-Dawley rats [1]; 1.0 mg/kg PO, benzodiazepine standard study) [%] | decrease in exit latency relative to vehicle-treated controls (Male Sprague-Dawley rats [1]; [3]) [%] | decrease in exit latency relative to vehicle-treated controls (Male Sprague-Dawley rats [1]; [4]) [%] | lowest effective dose (decrease of exit latency) (Male Sprague-Dawley rats [1]) [mg/kg] | decrease in exit latency relative to vehicle-treated controls (Male Sprague-Dawley rats [1]; 30 mg/kg PO, benzodiazepine standard study) [%] | decrease in exit latency relative to vehicle-treated controls (Male Sprague-Dawley rats [1]; 100 mg/kg PO, benzodiazepine standard study) [%] | effectiveness in the situational anxiety model (Male Sprague-Dawley rats [2])
CN1C(=O)CN=C(c2ccccc2)c2cc(Cl)ccc21 [diazepam] | 62 | 69 | 91 | 1.0 |  |  | 
CNC1=Nc2ccc(Cl)cc2C(c2ccccc2)=[N+]([O-])C1 [chlordiazepoxide] |  | 58 | 97 | 3.0 | 72 | 54 | 
CCC(CC)Nc1cc(C)nc2c(-c3ccc(OC)cc3C)c(C)nn12 [DMP904] |  |  |  |  |  |  | effective
